Measurements as given in patent US20140093513A1, “METHODS OF LOWERING PROPROTEIN CONVERSATE SUBTILISIN/KEXIN TYPE 9 (PCSK9)” (Catabasis Pharmaceuticals, Inc., priority 2012, published 2014).

These compounds were tested on PCSK9 (assay: PCSK9 secretion assay in HepG2 cells (PCSK9 ELISA)). Conditions: HepG2 cells, 10 μM atorvastatin, FIG. 2.
Type: cell-based
Protocol: HepG2 cells (from ATCC, Catalog no. HB-8065) were maintained in DMEM (Invitrogen) supplemented with 10% fetal bovine serum (Invitrogen). The day prior to the PCSK9 assay, cells are seeded in 96-well collagen coated plates at 25,000 cells/well.
The compounds of the invention were stored at −20° C. until used. The test article compound was dissolved in 100% ethanol to a 50 mM stock solution. This was then diluted in FBS to a final concentration of 1 mM. This solution was placed in a sonicating water bath for 30 minutes. Subsequent dilutions were then made in FBS supplemented with an equivalent volume of ethanol and mixed by vortexing.
HepG2 cells were seeded onto a collagen coated 96-well plate (Becton Dickinson, Catalog no. 35-4407) the day prior to the assay, as described above. The next day, the cell medium was removed, washed once with 100 μL serum free DMEM to remove any residual PCSK9, and replaced with 90 μL of serum free DMEM. Ten microliters of each compound concentration prepared in FBS was then added. Each concentration of compound was tested in triplicate. The compound was incubated with the cells overnight for 16 hours. Following this incubation, 10 μL of AlamarBlue was added to each well and cells incubated for another 2 hours. The plates were then removed and AlamarBlue fluorescence was measured (excitation, 550 nm and […]) to assess cell viability. Cell culture supernatant was then diluted […] 1×RDSP Calibrator Diluent and PCSK9 ELISA was then performed with 50 μL of this diluted sample, as per the manufacturer's instructions. The ELISA was measured on a Victor X5 multilabel plate reader (PerkinElmer) at an absorbance of 450 nm with background correction measured at 550 nm (The PCSK9 Elisa kits can be purchased from R&D System, Catalog no. DPC900).
Alternatively, an IC50 could also be obtained when this type of assay was carried out using at least 6 different concentrations of the test compounds. Table 1 lists the IC50 values for the compounds tested in this assay.

SMILES	PCSK9 secretion
CC(C)c1c(C(=O)Nc2ccccc2)c(-c2ccccc2)c(-c2ccc(F)cc2)n1CC[C@@H](O)C[C@@H](O)CC(=O)O [atorvastatin, reference compound]	increases PCSK9 secretion

Same assay, conditions: HepG2 cells, 16 hours incubation, at least 6 concentrations

SMILES	IC50 [µM]
CC/C=C\C/C=C\C/C=C\C/C=C\C/C=C\CCCC(=O)N1CCC(N(C)C(=O)C2=CC(=O)C(C)(c3ccccc3)O2)CC1 (stereo not drawn) [VII-7, N-(1-((5Z,8Z,11Z,14Z,17Z)-icosa-5,8,11,14,17-pentaenoyl)piperidin-4-yl)-N,5-dimethyl-4-oxo-5-phenyl-4,5-dihydrofuran-2-carboxamide]	< 25
CC/C=C\C/C=C\C/C=C\C/C=C\C/C=C\CCCC(=O)N1CCC(CN(C)C(=O)C2=CC(=O)C(C)(c3ccccc3)O2)CC1 (stereo not drawn) [VII-8, N-((1-((5Z,8Z,11Z,14Z,17Z)-icosa-5,8,11,14,17-pentaenoyl)piperidin-4-yl)methyl)-N,5-dimethyl-4-oxo-5-phenyl-4,5-dihydrofuran-2-carboxamide]	< 25
CC/C=C\C/C=C\C/C=C\C/C=C\C/C=C\CCCC(=O)N1CC[C@H](N(C)C(=O)C2=CC(=O)C(C)(c3ccccc3)O2)C1 (stereo partly drawn) [VII-9, N—((S)-1-((5Z,8Z,11Z,14Z,17Z)-icosa-5,8,11,14,17-pentaenoyl)pyrrolidin-3-yl)-N,5-dimethyl-4-oxo-5-phenyl-4,5-dihydrofuran-2-carboxamide]	25 to 50
CC/C=C\C/C=C\C/C=C\C/C=C\C/C=C\CCCC(=O)N1CCC(NC(=O)c2c[n+]([O-])cc(C)n2)CC1 [VII-15, 3-((1-((5Z,8Z,11Z,14Z,17Z)-icosa-5,8,11,14,17-pentaenoyl)piperidin-4-yl)carbamoyl)-5-methylpyrazine 1-oxide]	< 25
CC/C=C\C/C=C\C/C=C\C/C=C\C/C=C\CCCC(=O)N1CCC(NC(=O)C(C)(C)Oc2ccc(C(=O)c3ccc(Cl)cc3)cc2)CC1 [VII-19, 2-(4-(4-chlorobenzoyl)phenoxy)-N-(1-((5Z,8Z,11Z,14Z,17Z)-icosa-5,8,11,14,17-pentaenoyl)piperidin-4-yl)-2-methylpropanamide]	< 25
CC/C=C\C/C=C\C/C=C\C/C=C\C/C=C\CCCC(=O)N1CCC(CNC(=O)C(C)(C)Oc2ccc(C(=O)c3ccc(Cl)cc3)cc2)CC1 [VII-20, 2-(4-(4-chlorobenzoyl)phenoxy)-N-((1-((5Z,8Z,11Z,14Z,17Z)-icosa-5,8,11,14,17-pentaenoyl)piperidin-4-yl)methyl)-2-methylpropanamide]	< 25
CC/C=C\C/C=C\C/C=C\C/C=C\C/C=C\CCCC(=O)N1CC[C@@H](NC(=O)C(C)(C)Oc2ccc(C(=O)c3ccc(Cl)cc3)cc2)C1 [VII-21, 2-(4-(4-chlorobenzoyl)phenoxy)-N—((R)-1-((5Z,8Z,11Z,14Z,17Z)-icosa-5,8,11,14,17-pentaenoyl)pyrrolidin-3-yl)-2-methylpropanamide]	< 25
CC/C=C\C/C=C\C/C=C\C/C=C\C/C=C\CCCC(=O)N1CC[C@H](NC(=O)C(C)(C)Oc2ccc(C(=O)c3ccc(Cl)cc3)cc2)C1 [VII-22, 2-(4-(4-chlorobenzoyl)phenoxy)-N—((S)-1-((5Z,8Z,11Z,14Z,17Z)-icosa-5,8,11,14,17-pentaenoyl)pyrrolidin-3-yl)-2-methylpropanamide]	< 25
CC/C=C\C/C=C\C/C=C\C/C=C\C/C=C\CCCC(=O)N1CCC[C@@H]1CNC(=O)C(C)(C)Oc1ccc(C(=O)c2ccc(Cl)cc2)cc1 [VII-23, 2-(4-(4-chlorobenzoyl)phenoxy)-N—(((R)-1-((5Z,8Z,11Z,14Z,17Z)-icosa-5,8,11,14,17-pentaenoyl)pyrrolidin-2-yl)methyl)-2-methylpropanamide]	< 25
CC/C=C\C/C=C\C/C=C\C/C=C\C/C=C\CCCC(=O)N1CCC[C@H]1CNC(=O)C(C)(C)Oc1ccc(C(=O)c2ccc(Cl)cc2)cc1 [VII-24, 2-(4-(4-chlorobenzoyl)phenoxy)-N—(((S)-1-((5Z,8Z,11Z,14Z,17Z)-icosa-5,8,11,14,17-pentaenoyl)pyrrolidin-2-yl)methyl)-2-methylpropanamide]	> 50
CC/C=C\C/C=C\C/C=C\C/C=C\C/C=C\CCCC(=O)NC1CCN(C(=O)C(C)(C)Oc2ccc(C(=O)c3ccc(Cl)cc3)cc2)CC1 [VII-25, (5Z,8Z,11Z,14Z,17Z)—N-(1-(2-(4-(4-chlorobenzoyl)phenoxy)-2-methylpropanoyl)piperidin-4-yl)icosa-5,8,11,14,17-pentaenamide]	< 25
CC/C=C\C/C=C\C/C=C\C/C=C\C/C=C\CCCC(=O)Nc1nc(C)ncc1CNC(=O)C(C)(C)Oc1ccc(C(=O)c2ccc(Cl)cc2)cc1 [VII-41, (5Z,8Z,11Z,14Z,17Z)—N-(5-((2-(4-(4-chlorobenzoyl)phenoxy)-2-methylpropanamido)methyl)-2-methylpyrimidin-4-yl)icosa-5,8,11,14,17-pentaenamide]	25 to 50
CC/C=C\C/C=C\C/C=C\C/C=C\C/C=C\CCCC(=O)N1CCN(C(=O)C(C)(C)Oc2ccc(C(=O)c3ccc(Cl)cc3)cc2)CC1 [VII-42, (5Z,8Z,11Z,14Z,17Z)-1-(4-(2-(4-(4-chlorobenzoyl)phenoxy)-2-methylpropanoyl)piperazin-1-yl)icosa-5,8,11,14,17-pentaen-1-one]	< 25

Now from value to compound:

IC50 [µM]	SMILES
< 25	CC/C=C\C/C=C\C/C=C\C/C=C\C/C=C\CCCC(=O)N1CCC(CNC(=O)c2cnc(C)c[n+]2[O-])CC1 [VII-10, 2-(((1-((5Z,8Z,11Z,14Z,17Z)-icosa-5,8,11,14,17-pentaenoyl)piperidin-4-yl)methyl)carbamoyl)-5-methylpyrazine 1-oxide]
> 50	CC/C=C\C/C=C\C/C=C\C/C=C\C/C=C\CCCC(=O)N1CC[C@@H](NC(=O)c2cnc(C)c[n+]2[O-])C1 [VII-11, 2-(((R)-1-((5Z,8Z,11Z,14Z,17Z)-icosa-5,8,11,14,17-pentaenoyl)pyrrolidin-3-yl)carbamoyl)-5-methylpyrazine 1-oxide]
> 50	CC/C=C\C/C=C\C/C=C\C/C=C\C/C=C\CCCC(=O)N1CC[C@H](NC(=O)c2cnc(C)c[n+]2[O-])C1 [VII-12, 2-(((S)-1-((5Z,8Z,11Z,14Z,17Z)-icosa-5,8,11,14,17-pentaenoyl)pyrrolidin-3-yl)carbamoyl)-5-methylpyrazine 1-oxide]
< 25	CC/C=C\C/C=C\C/C=C\C/C=C\C/C=C\CCCC(=O)N1CCC[C@@H]1CNC(=O)c1cnc(C)c[n+]1[O-] [VII-13, 2-((((R)-1-((5Z,8Z,11Z,14Z,17Z)-icosa-5,8,11,14,17-pentaenoyl)pyrrolidin-2-yl)methyl)carbamoyl)-5-methylpyrazine 1-oxide]
25 to 50	CC/C=C\C/C=C\C/C=C\C/C=C\C/C=C\CCCC(=O)N1CCC[C@H]1CNC(=O)c1cnc(C)c[n+]1[O-] [VII-14, 2-((((S)-1-((5Z,8Z,11Z,14Z,17Z)-icosa-5,8,11,14,17-pentaenoyl)pyrrolidin-2-yl)methyl)carbamoyl)-5-methylpyrazine 1-oxide]
25 to 50	CC/C=C\C/C=C\C/C=C\C/C=C\C/C=C\CCCC(=O)N1CCC(CN(C)C(=O)c2cnc(C)c[n+]2[O-])CC1 [VII-16, 2-(((1-((5Z,8Z,11Z,14Z,17Z)-icosa-5,8,11,14,17-pentaenoyl)piperidin-4-yl)methyl)(methyl)carbamoyl)-5-methylpyrazine 1-oxide]
< 25	CC/C=C\C/C=C\C/C=C\C/C=C\C/C=C\CCCC(=O)N1CC[C@H](N(C)C(=O)c2cnc(C)c[n+]2[O-])C1 [VII-17, 2-(((S)-1-((5Z,8Z,11Z,14Z,17Z)-icosa-5,8,11,14,17-pentaenoyl)pyrrolidin-3-yl)(methyl)carbamoyl)-5-methylpyrazine 1-oxide]
